Laboratory results from patent publication US4693999A, “Liposomes containing steroid esters” (priority 1984, dated 1987).
Like-named read-outs stand apart in the source and are kept apart here.

Assays:
[1] = Spleen weight and body weight gain in the Sephadex lung edema test (systemic glucocorticoid action); format: in vivo, Sprague Dawley rats; set-up: Body weight gain in rel. to control: unit not given here; conditions: for Body weight gain in rel. to control: over 20 h; for % inhib. compared to control group, spleen: spleen weight, 20 h after Sephadex; for reduction of body weight gain (in words) / reduction of spleen (in words): summary of Table 1
From the text: (§1) Intratracheal instillation of Sephadex beads into rats leads to bronchial and also to alveolar inflammation. This provokes interstitial lung edema, which increases the lung weight, and the inflammation can be graded as the increase of the lung weight compared to a saline-instilled control group. The lung edema formation can be counteracted by pretreatment with glucocorticoids, preferably by local administration as intratracheal instillation or as inhalation. Ideally an anti-inflammatory action should be obtained only at the site of glucocorticoid application in the lung, but not in the rest of the body as this in long term treatment can lead to therapy limiting systemic side effects.
(§2) Sprague Dawley rats (225 g) were slightly anaesthetized with ether and the glucocorticoid test preparation (in liposomes suspended in saline) in a volume of 0.5 ml/kg was instilled into just the left lung lobe. Two h later a suspension of Sephadex (5 mg/kg in a volume of […] was instilled in the trachea well above the bifurcation so that the suspension reached both the left and right lung lobes. Twenty h later the rats were killed and the left and right lung lobes dissected out and weighed separately. Also the spleen weight and the body weight gain over the 20 h were determined. Control groups got vehicle instead of glucocorticoid preparation and saline instead of Sephadex suspension to determine the weight of non-drug treated Sephadex edema and the normal lung weight as well as the normal spleen weight and body weight gain.
As stated above an ideal glucocorticoid preparation should have a very high glucocorticoid activity at the site of application in lung, but with low activity outside this area. Therefore, in the selected model an optimal preparation should more or less completely block the edema in the locally pretreated left lung lobe, but have much less activity in the right lung half and no significant inhibitory action on the spleen weight and the body weight gain. It has been considered more important to search for a high degree of separation between the local activity (exemplified with the left lung) to the other activities than to search for a high absolute potency (high activity per mg drug) for the action in the left lung. In the test protocol used, doses were selected leading to a more or less complete block of the edema in the left lung and at these dose levels the extent of the other activities was estimated. At the selected dose 7-9 rats were tested in parallel. Mean±s.e.m. was calculated and compared with Student's t-test to the results of the corresponding Sephadex control group.

[2] = system: Sephadex-included lung edema; test: Sephadex-induced lung edema in rats (anti-inflammatory effect), glucocorticoid in liposomes instilled into left lung lobe; format: in vivo, Sprague Dawley rats; conditions: for inhibition in vivo at 3.35 µmol/kg / inhibition in vivo at 0.0335 µmol/kg / inhibition in vivo at 0.335 µmol/kg / inhibition in vivo at 0.1 µmol/kg: Rattus norvegicus; for inhibition in vivo at 3.35 µmol/kg: 3350 nmol/kg instilled in left lung lobe; for reduction of edema in left lung / protection of left lung / block of left lung edema (in words) / activity in the other lung half (in words): summary of Table 1; for reduction of edema in left lung / protection of left lung / block of left lung edema (in words): locally treated left lung; for inhibition in vivo at 0.0335 µmol/kg: 33.5 nmol/kg instilled in left lung lobe; for inhibition in vivo at 0.1 µmol/kg: 100 nmol/kg instilled in left lung lobe; for activity in the other lung half (in words): right lung compared with left
From the text: as §1
The differentiation between glucocorticoid actions in the treated lung region and outside this area can be tested in the following way.
as §2
As stated above an ideal glucocorticoid preparation should have a very high glucocorticoid activity at the site of application in lung, but with low activity outside this area. Therefore, in the selected model an optimal preparation should more or less completely block the edema in the locally pretreated left lung lobe, but have much less activity in the right lung half and no significant inhibitory action on the spleen weight and the body weight gain. […] In the test protocol used, doses were selected leading to a more or less complete block of the edema in the left lung and at these dose levels the extent of the other activities was estimated. At the selected dose 7-9 rats were tested in parallel.

[3] = 3350 nmol/kg instilled in left lung lobe, NS = not significant
[4] = liposomes in saline, 2 h before Sephadex, 20 h readout, locally treated lobe, read-out: % inhib. compared to control group, left lobe
[5] = liposomes in saline, 2 h before Sephadex, 20 h readout, untreated lobe, read-out: % inhib. compared to control group, right lobe
[6] = 33.5 nmol/kg instilled in left lung lobe, NS = not significant
[7] = 335 nmol/kg instilled in left lung lobe, NS = not significant
[8] = 20 h, read-out: % inhib. compared to control group, left lobe
[9] = 20 h, read-out: % inhib. compared to control group, right lobe
[10] = 335 nmol/kg instilled in left lung lobe, liposomes in saline, 2 h before Sephadex, 20 h readout, locally treated lobe, read-out: % inhib. compared to control group, left lobe
[11] = 335 nmol/kg instilled in left lung lobe, liposomes in saline, 2 h before Sephadex, 20 h readout, untreated lobe, read-out: % inhib. compared to control group, right lobe
[12] = 100 nmol/kg instilled in left lung lobe

What does the source list for `CCCCCCCCCCCCCCCC(=O)OCC(=O)[C@@]1(OC(=O)CC)[C@@H](C)C[C@H]2[C@@H]3CCC4=CC(=O)C=C[C@]4(C)[C@@]3(Cl)[C@@H](O)C[C@@]21C` [Beclomethasone-21-palmitate-17-propionate]?
Body weight gain in rel. to control [1, 3]: -3.1; % inhib. compared to control group, spleen [1, 3]: 5%; inhibition in vivo at 3.35 µmol/kg [2, 4]: 87%; inhibition in vivo at 3.35 µmol/kg [2, 5]: 47%; reduction of edema in left lung / protection of left lung [2]: 87%

For `CCCCCCCCCCCCCCCC(=O)OCC(=O)[C@@]1(OC(=O)CC)[C@H](C)C[C@H]2[C@@H]3C[C@H](F)C4=CC(=O)C=C[C@]4(C)[C@@]3(F)[C@@H](O)C[C@@]21C` [Flumethasone-21-palmitate-17-propionate], which “Body weight gain in rel. to control” value [1, 6] is on record?
Its value is 2.0.

And the “% inhib. compared to control group, spleen” value [1, 6]?
Its value is -1%.

And the inhibition in vivo at 0.0335 µmol/kg [2, 4]?
Its inhibition in vivo at 0.0335 µmol/kg is 108%.

What about the inhibition in vivo at 0.0335 µmol/kg [2, 5] of the same compound?
Its inhibition in vivo at 0.0335 µmol/kg is 43%.

Which “Body weight gain in rel. to control” value [1, 7] does the source give for `CCCCCCCCCCCCCCCC(=O)OCC(=O)[C@@]1(O)[C@@H](C)C[C@H]2[C@@H]3CCC4=CC(=O)C=C[C@]4(C)[C@@]3(F)[C@@H](O)C[C@@]21C` [Betamethasone-21-palmitate] here?
The value was 0.2.

And the “% inhib. compared to control group, spleen” value [1, 7]?
Its value is 7%.

And the inhibition in vivo at 0.335 µmol/kg [2, 8]?
The inhibition in vivo at 0.335 µmol/kg was 109%.

What about the inhibition in vivo at 0.335 µmol/kg [2, 9] of the same compound?
Its inhibition in vivo at 0.335 µmol/kg is -5%.

Which results are given for `CCCCCCCCCCCCCCCC(=O)OCC(=O)[C@@]12OC(CCC)O[C@@H]1C[C@H]1[C@@H]3CCC4=CC(=O)C=C[C@]4(C)[C@H]3[C@@H](O)C[C@@]12C` (some centres unmarked) [Budesonide-21-palmitate]?
Body weight gain in rel. to control [1, 7]: -1.4; % inhib. compared to control group, spleen [1, 7]: 4%; inhibition in vivo at 0.335 µmol/kg [2, 10]: 100%; inhibition in vivo at 0.335 µmol/kg [2, 11]: 37%

With `CCCCCCCCCCCCCCCC(=O)OCC(=O)[C@@]12OC(C)(C)O[C@@H]1C[C@H]1[C@@H]3C[C@H](F)C4=CC(=O)C=C[C@]4(C)[C@@]3(F)[C@@H](O)C[C@@]12C` [Fluocinolone acetonide-21-palmitate] as the compound, how does the “Body weight gain in rel. to control” value [1, 12] read?
The value was -4.8.

What about the “% inhib. compared to control group, spleen” value [1, 12] of the same compound?
Its value is 15%.

What about the “reduction of body weight gain (in words)” value [1] of the same compound?
Its value is “significant reduction of body weight gain”.

What about the “reduction of spleen (in words)” value [1] of the same compound?
Its value is “significant reduction of body weight gain and to spleen”.

What about the inhibition in vivo at 0.1 µmol/kg [2, 4] of the same compound?
The inhibition in vivo at 0.1 µmol/kg was 117%.

What about the inhibition in vivo at 0.1 µmol/kg [2, 5] of the same compound?
Its inhibition in vivo at 0.1 µmol/kg is 95%.

What about the “block of left lung edema (in words)” value [2] of the same compound?
Its value is “completely blocked the left lung edema”.

What about the “activity in the other lung half (in words)” value [2] of the same compound?
The value was “as high activity in the other lung half”.

With `CCCCCCCCCCCCCCCC(=O)OCC(=O)[C@@]12OC(C)(C)O[C@@H]1C[C@H]1[C@@H]3C[C@H](F)C4=CC(=O)C=C[C@]4(C)[C@H]3[C@@H](O)C[C@@]12C` [Flunisolide-21-palmitate] as the compound, how does the “Body weight gain in rel. to control” value [1, 6] read?
The value was -2.6.

And the “% inhib. compared to control group, spleen” value [1, 6]?
The value was 8%.

And the inhibition in vivo at 0.0335 µmol/kg [2, 4]?
The inhibition in vivo at 0.0335 µmol/kg was 133%.

And the inhibition in vivo at 0.0335 µmol/kg [2, 5]?
Its inhibition in vivo at 0.0335 µmol/kg is 44%.

Which “Body weight gain in rel. to control” value [1, 7] does the source give for `CCCCCCCCCCCCCCCC(=O)OCC(=O)[C@@]1(O)CC[C@H]2[C@@H]3CCC4=CC(=O)CC[C@]4(C)[C@H]3[C@@H](O)C[C@@]21C` [Hydrocortisone-21-palmitate] here?
The value was -1.

What about the inhibition in vivo at 0.335 µmol/kg [2, 10] of the same compound?
Its inhibition in vivo at 0.335 µmol/kg is -13%.

What about the inhibition in vivo at 0.335 µmol/kg [2, 11] of the same compound?
The inhibition in vivo at 0.335 µmol/kg was -7%.

And the “reduction of edema in left lung / protection of left lung” value [2]?
The value was “up to 38%”.

With `CCCCCCCCCCCCCCCC(=O)OCC(=O)[C@@]1(OC(=O)CC)[C@H](C)C[C@H]2[C@@H]3CCC4=CC(=O)C=C[C@]4(C)[C@@]3(F)[C@@H](O)C[C@@]21C` [Dexamethasone-21-palmitate-17-propionate] as the compound, how does the “Body weight gain in rel. to control” value [1, 7] read?
Its value is 1.0.

And the “% inhib. compared to control group, spleen” value [1, 7]?
The value was 3%.

And the inhibition in vivo at 0.335 µmol/kg [2, 10]?
Its inhibition in vivo at 0.335 µmol/kg is 104%.

What about the inhibition in vivo at 0.335 µmol/kg [2, 11] of the same compound?
Its inhibition in vivo at 0.335 µmol/kg is 44%.

Which results are given for `CCCC1O[C@@H]2C[C@H]3[C@@H]4CCC5=CC(=O)C=C[C@]5(C)[C@H]4[C@@H](O)C[C@]3(C)[C@]2(C(=O)CO)O1` (some centres unmarked) [Budesonide]?
Body weight gain in rel. to control [1, 7]: 1.6; inhibition in vivo at 0.335 µmol/kg [2, 10]: 38%; inhibition in vivo at 0.335 µmol/kg [2, 11]: 30%; reduction of edema in left lung / protection of left lung [2]: up to 38%

What does the source list for `CCCCC(=O)OCC(=O)[C@@]12OC(CCC)O[C@@H]1C[C@H]1[C@@H]3CCC4=CC(=O)C=C[C@]4(C)[C@H]3[C@@H](O)C[C@@]12C` (some centres unmarked) [Budesonide-21-valerate]?
Body weight gain in rel. to control [1, 7]: -0.8; % inhib. compared to control group, spleen [1, 7]: -1%; inhibition in vivo at 0.335 µmol/kg [2, 10]: 21%; inhibition in vivo at 0.335 µmol/kg [2, 11]: 22%; reduction of edema in left lung / protection of left lung [2]: up to 38%

With `CCCCCCCCCCCCCCCC(=O)OCC(=O)[C@@]1(O)[C@H](C)C[C@H]2[C@@H]3CCC4=CC(=O)C=C[C@]4(C)[C@@]3(F)[C@@H](O)C[C@@]21C` [Dexamethasone-21-palmitate] as the compound, how does the “Body weight gain in rel. to control” value [1, 7] read?
The value was -10.8.

What about the “reduction of body weight gain (in words)” value [1] of the same compound?
The value was “significant reduction of body weight gain”.

What about the “reduction of spleen (in words)” value [1] of the same compound?
Its value is “significant reduction of body weight gain and to spleen”.

And the inhibition in vivo at 0.335 µmol/kg [2, 8]?
The inhibition in vivo at 0.335 µmol/kg was 127%.

And the inhibition in vivo at 0.335 µmol/kg [2, 9]?
The inhibition in vivo at 0.335 µmol/kg was 109%.

And the “block of left lung edema (in words)” value [2]?
Its value is “completely blocked the left lung edema”.

What about the “activity in the other lung half (in words)” value [2] of the same compound?
Its value is “as high activity in the other lung half”.
